One may read the EC50 as the concentration giving half of the maximal effect.

The text below walks through data of US9908868B2, “Isoindolinone compounds as GPR119 modulators for the treatment of diabetes, obesity, dyslipidemia and related disorders” (SANOFI, priority 2014, dated 2018).

The target in the assay is T1, human GPR119 (Homo sapiens, UniProt Q8TDV5).
T1 construct: expressed in transfected cells
T1 sequence (Q8TDV5 1-335): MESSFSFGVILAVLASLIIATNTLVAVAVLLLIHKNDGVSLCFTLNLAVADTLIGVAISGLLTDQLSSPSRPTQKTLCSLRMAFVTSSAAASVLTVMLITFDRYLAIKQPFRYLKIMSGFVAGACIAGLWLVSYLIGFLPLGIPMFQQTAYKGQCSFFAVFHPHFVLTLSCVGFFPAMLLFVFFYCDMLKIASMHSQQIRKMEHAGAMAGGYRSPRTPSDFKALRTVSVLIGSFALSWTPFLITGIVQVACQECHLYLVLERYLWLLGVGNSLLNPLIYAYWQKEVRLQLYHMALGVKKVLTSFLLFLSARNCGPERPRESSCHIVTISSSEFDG
The assay is described as follows: Functional cellular assay measuring GPR119-mediated cAMP release (HTRF) in HEK-293 cells stably expressing recombinant human GPR119. Format: cell-based. The settings on record: cAMP response, cell line expressing human GPR119, 30 minutes at room temperature. The procedure, abridged:
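HEK-293 cells stably expressing recombinant human GPR119, suspended at 400000 cells/mL in HBSS/20 mM HEPES/0.1% BSA/2 mM IBMX, exposed to compound for 30 minutes at room temperature. cAMP detected by HTRF (665/620 nm ratio) after 1 h with reagents in lysis buffer. EC50 taken as concentration giving 50% of maximal activation.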
For orientation: In TR-FRET formats the signal depends on donor and acceptor labels being close together.

With `CN(C)C(=O)CN1Cc2c(F)cc(N3CC[C@@H](Oc4ccc(OCC5CCC5)nc4)C3=O)cc2C1=O` [Example 6-04, 2-[6-[(3R)-3-[[6-(cyclobutylmethoxy)-3-pyridyl]oxy]-2-oxo-pyrrolidin-1-yl]-4-fluoro-1-oxo-isoindolin-2-yl]-N,N-dimethyl-acetamide], the EC50 came out at 35 nM. As for `O=C(CN1Cc2ccc(N3CC[C@@H](Oc4ccc(Oc5ccc(F)cc5)nc4)C3=O)cc2C1=O)N1CCC(O)CC1` [Example 4-11, 6-[(3R)-3-[[6-(4-fluorophenoxy)-3-pyridyl]oxy]-2-oxo-pyrrolidin-1-yl]-2-[2-(4-hydroxy-1-piperidyl)-2-oxo-ethyl]isoindolin-1-one], the figure is 218 nM; as for `O=C(CN1Cc2ccc(N3CC[C@@H](Oc4ccc(OCC(F)(F)F)nc4)C3=O)cc2C1=O)N1CC(O)C1` [Example 1-47, 2-[2-(3-hydroxyazetidin-1-yl)-2-oxo-ethyl]-6-[(3R)-2-oxo-3-[[6-(2,2,2-trifluoroethoxy)-3-pyridyl]oxy]pyrrolidin-1-yl]isoindolin-1-one], 218 nM.

On to `CN(C)C(=O)CC1c2ccc(N3CC[C@@H](Oc4ccc(OCC5CC5)nc4)C3=O)cc2C(=O)N1C` (stereo partly drawn) [Example 1-07, 2-[5-[(3R)-3-[[6-(cyclopropylmethoxy)-3-pyridyl]oxy]-2-oxo-pyrrolidin-1-yl]-2-methyl-3-oxo-isoindolin-1-yl]-N,N-dimethyl-acetamide], for which the EC50 turned out to be 1900 nM.

As for `CN(C)C(=O)CN1Cc2ccc(N3CC[C@@H](Oc4ccc(O[C@@H]5C[C@@H]6C[C@@H]6C5)nc4)C3=O)cc2C1=O` [Example 2-18, 2-[6-[(3R)-3-[[6-[[(1S,5R)-3-bicyclo[3.1.0]hexanyl]oxy]-3-pyridyl]oxy]-2-oxo-pyrrolidin-1-yl]-1-oxo-isoindolin-2-yl]-N,N-dimethyl-acetamide], the EC50 worked out at 74 nM. As for `Cc1csc(-c2ccc(O[C@@H]3CCN(c4ccc5c(c4)C(=O)N(CC(=O)N(C)C)C5)C3=O)cc2)n1` [Example 2-31, N,N-dimethyl-2-[6-[(3R)-3-[4-(4-methylthiazol-2-yl)phenoxy]-2-oxo-pyrrolidin-1-yl]-1-oxo-isoindolin-2-yl]acetamide], the figure is 343 nM; as for `CN(C)C(=O)CN1Cc2ncc(N3CC[C@@H](Oc4ccc(OCC(F)(F)F)nc4)C3=O)cc2C1=O` [Example 1-49, N,N-dimethyl-2-[5-oxo-3-[(3R)-2-oxo-3-[[6-(2,2,2-trifluoroethoxy)-3-pyridyl]oxy]pyrrolidin-1-yl]-7H-pyrrolo[3,4-b]pyridin-6-yl]acetamide], 106 nM; as for `CN(C)C(=O)CN1Cc2ccc(N3CC[C@@H](Oc4ccc(O[C@H]5C[C@@H]6C[C@@H]6C5)nc4)C3=O)cc2C1=O` [Example 2-03, 2-[6-[(3R)-3-[[6-[[(1S,5R)-3-bicyclo[3.1.0]hexanyl]oxy]-3-pyridyl]oxy]-2-oxo-pyrrolidin-1-yl]-1-oxo-isoindolin-2-yl]-N,N-dimethyl-acetamide], 54 nM. On to `CN(C)C(=O)CN1Cc2ccc(N3CC[C@@H](Oc4ccc(SC(F)(F)F)cc4)C3=O)cc2C1=O` [Example 2-22, N,N-dimethyl-2-[1-oxo-6-[(3R)-2-oxo-3-[4-(trifluoromethylsulfanyl)phenoxy]pyrrolidin-1-yl]isoindolin-2-yl]acetamide], for which the EC50 amounted to 41 nM. As for `CN(C)C(=O)CN1Cc2c(F)cc(N3CC[C@@H](Oc4ccc(OCCC5CC5)nc4)C3=O)cc2C1=O` [Example 4-27, 2-[6-[(3R)-3-[[6-(2-cyclopropylethoxy)-3-pyridyl]oxy]-2-oxo-pyrrolidin-1-yl]-4-fluoro-1-oxo-isoindolin-2-yl]-N,N-dimethyl-acetamide], the figure is 46 nM; as for `CCCCC(=O)c1ccc(O[C@@H]2CCN(c3ccc4c(c3)C(=O)N(CC(=O)N(C)C)C4)C2=O)cc1` [Example 2-12, N,N-dimethyl-2-[1-oxo-6-[(3R)-2-oxo-3-(4-pentanoylphenoxy)pyrrolidin-1-yl]isoindolin-2-yl]acetamide], 44 nM.

Regarding `C[S+]([O-])CN1Cc2ccc(N3CC[C@@H](Oc4ccc(OCC(F)(F)F)nc4)C3=O)cc2C1=O` (stereo partly drawn) [Example 1-54, 2-(methylsulfinylmethyl)-6-[(3R)-2-oxo-3-[[6-(2,2,2-trifluoroethoxy)-3-pyridyl]oxy]pyrrolidin-1-yl]isoindolin-1-one], the EC50 was 66 nM. Then `CN1Cc2c(F)cc(N3CC[C@@H](Oc4ccc(OCCC5CC5)nc4)C3=O)cc2C1=O` [Example 5-04, 6-[(3R)-3-[[6-(2-cyclopropylethoxy)-3-pyridyl]oxy]-2-oxo-pyrrolidin-1-yl]-4-fluoro-2-methyl-isoindolin-1-one], with 1240 nM. In the case of `O=C(O)CN1Cc2ccc(N3CC[C@@H](Oc4ccc(OCC5CC5)nc4)C3=O)cc2C1=O` [Example 3-02, 2-[6-[(3R)-3-[[6-(cyclopropylmethoxy)-3-pyridyl]oxy]-2-oxo-pyrrolidin-1-yl]-1-oxo-isoindolin-2-yl]acetic acid], the EC50 amounted to 443 nM.

Regarding `O=C(CN1Cc2ccc(N3CC[C@@H](Oc4ccc(OCC(F)(F)F)nc4)C3=O)cc2C1=O)N1CCCC1` [Example 4-40, 2-(2-oxo-2-pyrrolidin-1-yl-ethyl)-6-[(3R)-2-oxo-3-[[6-(2,2,2-trifluoroethoxy)-3-pyridyl]oxy]pyrrolidin-1-yl]isoindolin-1-one], the EC50 came to 43 nM.

As to `CCOc1ccc(O[C@@H]2CCN(c3cc(F)c4c(c3)C(=O)N(CC(=O)N3CCCC3)C4)C2=O)cn1` [Example 4-17, 6-[(3R)-3-[(6-ethoxy-3-pyridyl)oxy]-2-oxo-pyrrolidin-1-yl]-4-fluoro-2-(2-oxo-2-pyrrolidin-1-yl-ethyl)isoindolin-1-one], the EC50 came to 191 nM. For `CN(C)C(=O)CN1Cc2ccc(N3CC[C@@H](Oc4ccc(C(=O)C5CC5)cc4)C3=O)cc2C1=O` [Example 2-48, 2-[6-[(3R)-3-[4-(cyclopropanecarbonyl)phenoxy]-2-oxo-pyrrolidin-1-yl]-1-oxo-isoindolin-2-yl]-N,N-dimethyl-acetamide], the EC50 is 202 nM. As for `CN1Cc2c(F)cc(N3CC[C@@H](Oc4ccc(OCC5CC5)nc4)C3=O)cc2C1=O` [Example 1-23, 6-[(3R)-3-[[6-(cyclopropylmethoxy)-3-pyridyl]oxy]-2-oxo-pyrrolidin-1-yl]-4-fluoro-2-methyl-isoindolin-1-one], the figure is 695 nM. Then `CN(C)C(=O)CN1Cc2ccc(N3CC[C@@H](Oc4ccc(CCC5CC5)nc4)C3=O)cc2C1=O` [Example 2-04, 2-[6-[(3R)-3-[[6-(2-cyclopropylethyl)-3-pyridyl]oxy]-2-oxo-pyrrolidin-1-yl]-1-oxo-isoindolin-2-yl]-N,N-dimethyl-acetamide], with 156 nM; and `CN(C)C(=O)CN1Cc2ccc(N3CC[C@@H](Oc4ccc(C(=O)CCC(F)(F)F)cc4)C3=O)cc2C1=O` [Example 2-66, N,N-dimethyl-2-[1-oxo-6-[(3R)-2-oxo-3-[4-(4,4,4-trifluorobutanoyl)phenoxy]pyrrolidin-1-yl]isoindolin-2-yl]acetamide], with 52 nM.

Take `O=C(CN1Cc2ccc(N3CC[C@@H](Oc4ccc(OCC5CC5)nc4)C3=O)cc2C1=O)N1CCCC1` [Example 4-01, 6-[(3R)-3-[[6-(cyclopropylmethoxy)-3-pyridyl]oxy]-2-oxo-pyrrolidin-1-yl]-2-(2-oxo-2-pyrrolidin-1-yl-ethyl)isoindolin-1-one]: the EC50 came out at 106 nM. Then `CCn1nnnc1-c1ccc(O[C@@H]2CCN(c3ccc4c(c3)C(=O)N(CC(=O)N(C)C)C4)C2=O)cc1` [Example 2-39, 2-[6-[(3R)-3-[4-(1-ethyltetrazol-5-yl)phenoxy]-2-oxo-pyrrolidin-1-yl]-1-oxo-isoindolin-2-yl]-N,N-dimethyl-acetamide], with 27000 nM; and `CC(C)N1Cc2c(F)cc(N3CC[C@@H](Oc4ccc(OCCC5CC5)nc4)C3=O)cc2C1=O` [Example 5-05, 6-[(3R)-3-[[6-(2-cyclopropylethoxy)-3-pyridyl]oxy]-2-oxo-pyrrolidin-1-yl]-4-fluoro-2-isopropyl-isoindolin-1-one], with 5040 nM. As for `CN(C)C(=O)CN1C(=O)c2cc(N3CC[C@@H](Oc4ccc(OCC5CC5)nc4)C3=O)ccc2C1(C)C` [Example 1-12, 2-[5-[(3R)-3-[[6-(cyclopropylmethoxy)-3-pyridyl]oxy]-2-oxo-pyrrolidin-1-yl]-1,1-dimethyl-3-oxo-isoindolin-2-yl]-N,N-dimethyl-acetamide], the figure is 29400 nM; as for `O=C(CN1Cc2ccc(N3CC[C@@H](Oc4ccc(OCC5CC5)nc4)C3=O)cc2C1=O)NC(CO)CO` [Example 4-32, 2-[6-[(3R)-3-[[6-(cyclopropylmethoxy)-3-pyridyl]oxy]-2-oxo-pyrrolidin-1-yl]-1-oxo-isoindolin-2-yl]-N-[2-hydroxy-1-(hydroxymethyl)ethyl]acetamide], 448 nM; as for `O=C(O)CN1Cc2c(F)cc(N3CC[C@@H](Oc4ccc(OCC5CC5)nc4)C3=O)cc2C1=O` [Example 3-01, 2-[6-[(3R)-3-[[6-(cyclopropylmethoxy)-3-pyridyl]oxy]-2-oxo-pyrrolidin-1-yl]-4-fluoro-1-oxo-isoindolin-2-yl]acetic acid], 1050 nM.

`C[S@@+]([O-])CN1Cc2ncc(N3CC[C@@H](Oc4ccc(OCC(F)(F)F)nc4)C3=O)cc2C1=O` [Example 1-69, 6-((R)-methanesulfinylmethyl)-3-{(R)-2-oxo-3-[6-(2,2,2-trifluoro-ethoxy)-pyridin-3-yloxy]-pyrrolidin-1-yl}-6,7-dihydro-pyrrolo[3,4-b]pyridin-5-one]: the EC50 turned out to be 131 nM.
